This is an account of results in ChEMBL document CHEMBL1201862, “PubChem BioAssay data set” (2004).

Where “and” joins values, the source holds several entries; their conditions need not be identical. Identical values can stand only once.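 Growth conditions: 96-well plates. Treatment: test compound, 48 hours, 5 concentrations. Analysis: linear interpolation between bracketing concentrations; unreached endpoints set to highest concentration. Here, GI50 denotes the concentration required for 50% inhibition of growth.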 Calls of active or inactive are those of the source. Cut-off read from the data, not from the text of the source: active = GI50 up to about 1.1 µM and inactive = higher.

Among the test systems are NCI-H23; SK-MEL-5; KM12; HCT-116; HOP-92; MCF7; CAKI-1; COLO 205; UACC-257; SF-268; HCT-15; A498; NCI-H460; NCI-H226; PC-3; ACHN; UO-31; RPMI-8226; Hs-578T; MDA-N.
What all share (assay): inhibition of tumour cell growth, NCI panel, 48 h

For `O=C1c2ccccc2C(=O)c2sc(Nc3ccccc3Cl)nc21`, the GI50 in the test on NCI-H23 is 4.98 µM (inactive); with SK-MEL-5 it was 5.87 µM (inactive); in the test on KM12, 15 µM (inactive); with HCT-116, 10.7 µM (inactive); with HOP-92, 13.2 µM (inactive); with MCF7, 14.3 µM (inactive). In addition, the GI50 in the test with CAKI-1 was 4.06 µM (inactive); with COLO 205, 14.6 µM (inactive); in the test with UACC-257, 8.34 µM (inactive); in the test on SF-268, 9.29 µM (inactive); in the test on HCT-15, 9.38 µM; in the test with A498, 16.2 µM (inactive). Further, the GI50 with NCI-H460 is 12.9 µM (inactive); with NCI-H226, 5.56 µM (inactive); in the test with PC-3 it was 12.7 µM (inactive); with ACHN, 5.68 µM (inactive); in the test with UO-31, 10.6 µM (inactive); with RPMI-8226 it was 3.68 µM (inactive). Besides, the GI50 in the test with Hs-578T is 11.1 µM (inactive); in the test on MDA-N, 2.41 µM (inactive).
As to `c1ccc2c3c([nH]c2c1)C1c2[nH]c4ccccc4c2CCN1CC3`, the GI50 was 12.3 µM (inactive) with NCI-H23; 13.6 µM (inactive) with SK-MEL-5; 12.5 µM (inactive) in the test with KM12; 10.2 µM (inactive) in the test with HCT-116; 2.03 µM (inactive) in the test with HOP-92; 10.1 µM (inactive) in the test on MCF7. The GI50 with CAKI-1 was 18.7 µM (inactive); in the test on COLO 205 it was 3.79 µM (inactive); with UACC-257 it was 14.5 µM (inactive); with SF-268, 14.4 µM (inactive); in the test with HCT-15, 11 µM; with A498, 19 µM (inactive). Also, the GI50 is 6.85 µM (inactive) with NCI-H460; 14.7 µM (inactive) in the test with NCI-H226; 12.9 µM (inactive) in the test with PC-3; 13.8 µM (inactive) with ACHN; 5.62 µM (inactive) in the test with UO-31; 11.9 µM (inactive) in the test with RPMI-8226. Moreover, the figures for the GI50 with Hs-578T and in the test on MDA-N were 17.3 µM (inactive) and 18.1 µM (inactive), respectively.
Consider `Cc1c(C#N)c2nnn(-c3ccc(Cl)cc3)c(=O)n2c1-c1ccccc1`, for which the GI50 in the test with NCI-H23 was 0.167 µM (active); with SK-MEL-5, 0.0605 µM (active); with KM12, 0.051 µM (active); in the test on HCT-116 it was 0.0649 µM (active); with HOP-92 it was 0.474 µM (active); in the test on MCF7, 0.42 µM (active). The GI50 is 0.251 µM (active) with CAKI-1; 0.0357 µM (active) in the test on COLO 205; 3.15 µM (inactive) in the test with UACC-257; 0.199 µM (active) in the test on SF-268; 0.0628 µM in the test with HCT-15; 0.124 µM (active) in the test with A498. Also, the GI50 is 0.0991 µM (active) in the test on NCI-H460; 0.114 µM (active) in the test with NCI-H226; 0.0459 µM (active) in the test with PC-3; 0.929 µM (active) in the test with ACHN; 3.29 µM (inactive) with UO-31; 0.16 µM (active) with RPMI-8226. The figures for the GI50 in the test with Hs-578T and with MDA-N were 0.158 µM (active) and 0.0173 µM (active), respectively.
As for `CCN(C(=O)N[C@@H](C)C(=O)N[C@@H](Cc1ccccc1)C(=O)OC)c1ccccc1`, the GI50 with NCI-H23 is > 100 µM (inactive); in the test with SK-MEL-5, 95.9 µM (inactive); in the test on KM12, > 100 µM (inactive); in the test with HCT-116, > 100 µM (inactive); in the test on HOP-92, 19.4 µM (inactive); in the test with MCF7 it was > 100 µM (inactive). In addition, the GI50 is > 100 µM (inactive) in the test with CAKI-1; 31.5 µM (inactive) in the test with COLO 205; 49.1 µM (inactive) in the test on UACC-257; > 100 µM (inactive) with SF-268; 70.8 µM in the test with HCT-15; > 100 µM (inactive) with A498. The GI50 in the test with NCI-H460 is 17.5 µM (inactive); in the test on NCI-H226, > 100 µM (inactive); in the test with PC-3 it was > 100 µM (inactive); with ACHN, > 100 µM (inactive); in the test on UO-31 it was 31.7 µM (inactive); with RPMI-8226 it was 38.5 µM (inactive). Besides, the figures for the GI50 with Hs-578T and with MDA-N were 70.6 µM (inactive) and > 100 µM (inactive), respectively.
On to `COc1ccc2c3c([nH]c2c1)[C@H]1C[C@H]2[C@H](C[C@@H](O)[C@H](OC)[C@H]2C(=O)O)CN1CC3`, for which the GI50 in the test on NCI-H23, in the test on SK-MEL-5, in the test with KM12, in the test with HCT-116, with HOP-92 and in the test with MCF7 was > 100 µM (inactive) in each case. Moreover, the GI50 is > 100 µM (inactive) in the test on CAKI-1; > 100 µM (inactive) with COLO 205; > 100 µM (inactive) with UACC-257; > 100 µM (inactive) with SF-268; above 100 µM in the test on HCT-15; > 100 µM (inactive) in the test on A498. Besides, the GI50 in the test on NCI-H460, with NCI-H226, with PC-3, in the test on ACHN, in the test with UO-31 and in the test with RPMI-8226 was > 100 µM (inactive) throughout. Further, the figures for the GI50 with Hs-578T and in the test on MDA-N were 62.8 µM (inactive) and > 100 µM (inactive), respectively.
Consider `O=C1c2scnc2-c2nccc3c2c1nc1ccccc13` [KUANONIAMINE A], for which the GI50 in the test with NCI-H23 is 0.223 µM (active); with SK-MEL-5, 0.0412 µM (active); in the test on KM12, 1.41 µM (inactive); with HCT-116 it was 0.272 µM (active); in the test on HOP-92 it was 1.88 µM (inactive); in the test with MCF7, 0.299 µM (active). For the same compound, the GI50 with CAKI-1 is 1.63 µM (inactive); in the test on COLO 205, 1.31 µM (inactive); with UACC-257, 0.363 µM (active); in the test on SF-268, 1.78 µM (inactive); in the test on HCT-15, 0.207 µM; in the test with A498, 1.26 µM (inactive). Besides, the GI50 in the test with NCI-H460 was 0.372 µM (active); in the test with NCI-H226 it was 1.44 µM (inactive); with PC-3, 0.664 µM (active); in the test with ACHN, 0.955 µM (active); in the test with UO-31, 1.16 µM (inactive); in the test with RPMI-8226, 1.37 µM (inactive). Besides, the GI50 in the test on Hs-578T was 1.8 µM (inactive); in the test on MDA-N, 0.196 µM (active).
As to `COC(=O)N/N=C(/c1nc2ccc([N+](=O)[O-])cc2nc1O)C(O)c1ccc(OC)c(OC)c1` (stereo not given), the GI50 is > 76.7 µM (inactive) with NCI-H23; 29.8 µM (inactive) with SK-MEL-5; 49.9 µM (inactive) in the test on KM12; 97.1 µM (inactive) in the test with HCT-116; > 100 µM (inactive) in the test on HOP-92; 88.1 µM (inactive) in the test on MCF7. Besides, the GI50 was > 100 µM (inactive) in the test on CAKI-1; 39.4 µM (inactive) with COLO 205; 47.1 µM (inactive) in the test with UACC-257; > 81.1 µM (inactive) in the test on SF-268; 46.8 µM with HCT-15; > 67.8 µM (inactive) in the test on A498. Further, the GI50 was 59 µM (inactive) with NCI-H460; > 100 µM (inactive) with NCI-H226; 76.2 µM (inactive) in the test with PC-3; > 100 µM (inactive) with ACHN; > 100 µM (inactive) in the test with UO-31; 41.9 µM (inactive) in the test with RPMI-8226. The results for the GI50 in the test with Hs-578T and in the test on MDA-N were 59 µM (inactive) and > 100 µM (inactive), respectively.
As for `COc1ccc(/C(CC2OC(=O)c3ccccc32)=N\NC(=O)C[N+](C)(C)C)cc1` (stereo not given), the GI50 with NCI-H23 was 17.5 µM (inactive); in the test on SK-MEL-5, 22.5 µM (inactive); in the test on KM12, 21.2 µM (inactive); in the test with HCT-116, 22.5 µM (inactive); with HOP-92, 23.1 µM (inactive); in the test on MCF7, 42 µM (inactive). The GI50 in the test with CAKI-1 is 40.3 µM (inactive); in the test with COLO 205, 27.5 µM (inactive); in the test on UACC-257, 31.3 µM (inactive); in the test on SF-268, 30.5 µM (inactive); in the test on HCT-15, 19.2 µM; in the test with A498, 24.3 µM (inactive). For the same compound, the GI50 in the test on NCI-H460 is 24.6 µM (inactive); in the test on NCI-H226, 21.7 µM (inactive); with PC-3, 47.8 µM (inactive); in the test on ACHN it was 28.2 µM (inactive); in the test with UO-31 it was 26.5 µM (inactive); in the test on RPMI-8226, 15.2 µM (inactive). In addition, the GI50 is 36.7 µM (inactive) in the test with Hs-578T and 38.2 µM (inactive) in the test on MDA-N.
On to `O=C(/C=C/c1ccccc1)c1ccccc1` [CHALCONE], for which the GI50 in the test with NCI-H23 was > 10 µM (inactive); with SK-MEL-5, > 10 µM (inactive); with KM12, 3.78 µM (inactive); with HCT-116 it was 2.01 µM (inactive); in the test with HOP-92, > 10 µM (inactive); with MCF7 it was 2.7 µM (inactive). The GI50 in the test on CAKI-1 is > 10 µM (inactive); in the test with COLO 205, > 10 µM (inactive); in the test with UACC-257, > 10 µM (inactive); in the test with SF-268 it was > 10 µM (inactive); in the test with HCT-15, above 10 µM; with A498, > 10 µM (inactive). For the same compound, the GI50 with NCI-H460 is > 9.55 µM (inactive); in the test on NCI-H226, > 10 µM (inactive); with PC-3 it was > 10 µM (inactive); in the test on ACHN, > 10 µM (inactive); with UO-31, > 10 µM (inactive); with RPMI-8226 it was > 4.85 µM (inactive). The GI50 with Hs-578T and with MDA-N was > 10 µM (inactive) throughout.
`COc1cc([C@H]2OC[C@H]3[C@@H]2CO[C@@H]3c2cc(OC)c3c(c2)OCO3)cc(OC)c1OC`: the GI50 with NCI-H23 was 37.4 µM (inactive) and 63 µM (inactive); with SK-MEL-5, 19.2 µM (inactive) and 18.6 µM (inactive); in the test on KM12, 50.5 µM (inactive) and 95.1 µM (inactive); in the test on HCT-116, 41.6 µM (inactive) and 70.3 µM (inactive); with HOP-92 it was 46.9 µM (inactive) and 60.7 µM (inactive); in the test on MCF7, 60.5 µM (inactive) and 50.5 µM (inactive). In addition, the GI50 with CAKI-1 was 52.7 µM (inactive) and 25 µM (inactive); with COLO 205, 48.3 µM (inactive) and 42.5 µM (inactive); in the test on UACC-257, 79.4 µM (inactive) and 50.2 µM (inactive); with SF-268, 68.2 µM (inactive) and 59.2 µM (inactive); in the test with HCT-15 it was 34.4 µM and 39.8 µM; in the test on A498, > 100 µM (inactive). In addition, the GI50 was 33.7 µM (inactive) and 33.9 µM (inactive) in the test with NCI-H460; 43.5 µM (inactive) and 47.4 µM (inactive) in the test on NCI-H226; 46.1 µM (inactive) and 51.6 µM (inactive) in the test with PC-3; 39.1 µM (inactive) with ACHN; 44.6 µM (inactive) and 38.3 µM (inactive) with UO-31; 28 µM (inactive) and 35 µM (inactive) with RPMI-8226. Moreover, the GI50 in the test with Hs-578T was 51.3 µM (inactive) and 59.3 µM (inactive); in the test with MDA-N, 65.2 µM (inactive).
